Where “and” joins values, the source holds several entries; their conditions need not be identical. Identical values can stand only once.
Tests used:
[1] = biological target: Mast/stem cell growth factor receptor Kit (Homo sapiens, UniProt P10721); experiment: Inhibition of human recombinant cKit by FRET assay
[2] = biological target: Serine/threonine-protein kinase B-raf (Homo sapiens, UniProt P15056); experiment: Inhibition of b-Raf
[3] = AUC in ICR mouse at 25 mg/kg, po; assay type: ADME, organism-based; set-up: dose 25 mg/kg, route oral; conditions: plasma
COLO 205 = experiment: Inhibition of tumor growth in human Colo205 cells xenografted in athymic mouse at 50 mg/kg, po once daily after 9 days; assay type: functional; conditions: COLO 205, 216 h
[4] = biological target: Vascular endothelial growth factor receptor 2 (Homo sapiens, UniProt P35968); experiment: Inhibition of VEGFR2
Vascular endothelial growth factor receptor 2, sequence (P35968 whole entry): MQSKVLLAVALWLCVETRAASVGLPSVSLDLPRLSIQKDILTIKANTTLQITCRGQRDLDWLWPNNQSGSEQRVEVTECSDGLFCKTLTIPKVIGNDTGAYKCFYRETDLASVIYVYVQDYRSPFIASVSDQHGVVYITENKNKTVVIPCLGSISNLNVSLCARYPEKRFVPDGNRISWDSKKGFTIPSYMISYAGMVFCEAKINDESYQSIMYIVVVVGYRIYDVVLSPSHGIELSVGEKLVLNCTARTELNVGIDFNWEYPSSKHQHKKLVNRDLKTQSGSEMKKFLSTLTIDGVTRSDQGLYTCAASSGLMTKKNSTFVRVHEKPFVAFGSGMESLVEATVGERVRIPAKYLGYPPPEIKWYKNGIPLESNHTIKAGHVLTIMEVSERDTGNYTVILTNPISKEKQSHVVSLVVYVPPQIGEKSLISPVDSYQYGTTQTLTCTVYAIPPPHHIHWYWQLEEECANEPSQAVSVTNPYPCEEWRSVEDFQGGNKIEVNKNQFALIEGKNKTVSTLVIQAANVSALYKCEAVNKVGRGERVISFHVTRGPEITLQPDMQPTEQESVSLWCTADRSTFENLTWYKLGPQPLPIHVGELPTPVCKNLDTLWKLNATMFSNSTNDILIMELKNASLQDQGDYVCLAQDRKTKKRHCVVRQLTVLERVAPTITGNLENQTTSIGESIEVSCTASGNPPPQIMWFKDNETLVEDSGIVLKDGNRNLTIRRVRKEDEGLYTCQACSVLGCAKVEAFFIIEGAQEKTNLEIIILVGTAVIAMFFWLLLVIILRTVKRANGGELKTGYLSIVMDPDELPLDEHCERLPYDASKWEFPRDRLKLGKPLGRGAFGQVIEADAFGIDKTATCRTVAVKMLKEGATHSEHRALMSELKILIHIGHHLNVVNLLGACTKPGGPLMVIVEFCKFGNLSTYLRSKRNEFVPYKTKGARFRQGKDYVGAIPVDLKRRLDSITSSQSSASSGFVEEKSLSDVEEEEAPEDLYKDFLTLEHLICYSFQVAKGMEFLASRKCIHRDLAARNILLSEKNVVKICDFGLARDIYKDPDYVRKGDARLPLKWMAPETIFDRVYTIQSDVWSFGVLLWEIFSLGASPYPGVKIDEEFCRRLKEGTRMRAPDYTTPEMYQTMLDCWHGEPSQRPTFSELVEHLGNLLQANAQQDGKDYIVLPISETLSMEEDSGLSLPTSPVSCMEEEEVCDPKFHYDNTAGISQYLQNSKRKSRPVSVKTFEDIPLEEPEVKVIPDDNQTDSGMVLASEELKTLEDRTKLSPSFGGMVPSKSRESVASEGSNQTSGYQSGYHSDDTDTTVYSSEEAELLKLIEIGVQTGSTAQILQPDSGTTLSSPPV

[5] = AUC (1 to 5 hrs) in ICR mouse; assay type: ADME, organism-based; set-up: time 1-5 hr; conditions: plasma
[6] = Cmax in ICR mouse at 25 mg/kg; assay type: ADME, organism-based; set-up: dose 25 mg/kg; conditions: in vivo
NCI-H460 = experiment: Inhibition of tumor growth in human NCI-H460 NSCLC cells xenografted in athymic mouse at 50 mg/kg, po once daily after 9 days; assay type: functional; conditions: NCI-H460, 216 h
[7] = Volume of distribution at steady state in iv dosed ICR mouse; assay type: ADME, organism-based; conditions: in vivo, read-out: Vdss
MDA-MB-231 = experiment: Inhibition of tumor growth in human MDA-MB-231 cells xenografted in athymic mouse at 50 mg/kg, po once daily after 9 days; assay type: functional; conditions: MDA-MB-231, 216 h
[8] = Cmax in ICR mouse at 15 mg/kg; assay type: ADME, organism-based; set-up: dose 15 mg/kg; conditions: in vivo
[9] = AUC (0 to 5 hrs) in ICR mouse at 25 mg/kg, po; assay type: ADME, organism-based; set-up: time < 4 hr, dose 25 mg/kg, route oral; conditions: plasma

Serine/threonine-protein kinase B-raf, sequence (P15056 whole entry): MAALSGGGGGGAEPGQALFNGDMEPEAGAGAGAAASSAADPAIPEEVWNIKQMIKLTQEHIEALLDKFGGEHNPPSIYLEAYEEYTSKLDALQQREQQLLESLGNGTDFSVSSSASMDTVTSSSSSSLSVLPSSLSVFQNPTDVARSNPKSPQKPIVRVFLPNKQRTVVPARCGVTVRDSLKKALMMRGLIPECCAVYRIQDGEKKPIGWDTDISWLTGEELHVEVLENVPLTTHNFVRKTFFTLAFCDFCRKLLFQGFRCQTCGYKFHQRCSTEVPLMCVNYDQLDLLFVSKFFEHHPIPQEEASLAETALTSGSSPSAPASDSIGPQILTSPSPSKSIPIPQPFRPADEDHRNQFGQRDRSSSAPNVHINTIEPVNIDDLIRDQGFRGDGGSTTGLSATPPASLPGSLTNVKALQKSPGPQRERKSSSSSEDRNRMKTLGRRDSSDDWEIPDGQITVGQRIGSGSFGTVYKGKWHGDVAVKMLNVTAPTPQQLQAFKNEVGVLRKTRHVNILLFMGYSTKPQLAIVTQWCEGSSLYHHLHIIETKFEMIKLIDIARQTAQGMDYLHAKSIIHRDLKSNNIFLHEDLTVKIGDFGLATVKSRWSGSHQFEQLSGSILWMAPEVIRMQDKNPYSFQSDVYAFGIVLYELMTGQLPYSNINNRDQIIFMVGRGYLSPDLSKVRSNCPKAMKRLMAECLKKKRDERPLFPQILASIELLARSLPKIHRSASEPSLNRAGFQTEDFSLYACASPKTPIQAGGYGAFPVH
Mast/stem cell growth factor receptor Kit, sequence (P10721 whole entry): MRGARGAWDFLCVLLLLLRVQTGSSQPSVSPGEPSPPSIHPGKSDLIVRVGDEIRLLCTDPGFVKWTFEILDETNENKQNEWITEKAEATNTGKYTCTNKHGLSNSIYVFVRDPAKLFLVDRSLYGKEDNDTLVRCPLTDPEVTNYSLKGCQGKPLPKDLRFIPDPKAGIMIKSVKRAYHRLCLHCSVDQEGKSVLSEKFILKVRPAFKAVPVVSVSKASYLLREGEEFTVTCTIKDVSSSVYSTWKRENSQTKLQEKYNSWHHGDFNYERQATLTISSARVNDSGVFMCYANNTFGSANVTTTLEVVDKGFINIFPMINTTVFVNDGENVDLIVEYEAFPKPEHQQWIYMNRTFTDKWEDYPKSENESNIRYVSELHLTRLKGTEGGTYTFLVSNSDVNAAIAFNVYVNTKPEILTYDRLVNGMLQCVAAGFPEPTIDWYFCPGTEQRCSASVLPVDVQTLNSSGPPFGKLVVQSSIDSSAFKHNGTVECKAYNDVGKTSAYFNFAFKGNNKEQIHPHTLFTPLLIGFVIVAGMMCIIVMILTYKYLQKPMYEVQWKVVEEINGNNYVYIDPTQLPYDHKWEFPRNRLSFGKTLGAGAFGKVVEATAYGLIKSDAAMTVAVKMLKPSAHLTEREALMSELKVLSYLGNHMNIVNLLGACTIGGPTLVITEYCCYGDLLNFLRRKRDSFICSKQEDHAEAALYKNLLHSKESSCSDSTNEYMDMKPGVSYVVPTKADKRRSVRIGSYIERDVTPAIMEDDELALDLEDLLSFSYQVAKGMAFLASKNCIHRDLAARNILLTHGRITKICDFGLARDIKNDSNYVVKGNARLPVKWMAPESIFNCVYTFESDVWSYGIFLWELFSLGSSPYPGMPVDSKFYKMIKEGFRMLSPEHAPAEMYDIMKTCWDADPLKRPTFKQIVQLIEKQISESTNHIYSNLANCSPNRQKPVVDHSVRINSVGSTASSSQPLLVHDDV

| Compound | IC50 [1] | IC50 [2] | also measured |
| --- | --- | --- | --- |
| O=C(NCCO)c1cc(CNc2ccccc2C(=O)Nc2ccc3c(c2)OC(F)(F)O3)ccn1 | 18 nM | 397 nM | – |
| O=C(Nc1ccc2c(c1)CCC2)Nc1cc(CNc2ccccc2C(=O)Nc2ccc3c(c2)OC(F)(F)O3)ccn1 | 240 nM | 64 nM | – |
| O=C(Nc1ccc2c(c1)OC(F)(F)C(F)(F)O2)c1ncsc1NCc1ccncc1 | 95 nM | 2560 nM | – |
| CCNC(=O)c1cc(CNc2ccccc2C(=O)Nc2ccc3c(c2)OC(F)(F)O3)ccn1 | 25 nM | 333 nM | – |
| CS(=O)(=O)Nc1cc(CNc2ccccc2C(=O)Nc2ccc3c(c2)OC(F)(F)O3)ccn1 | 25 nM | 594 nM | – |
| O=C(Nc1ccccc1)Nc1cc(CNc2ccccc2C(=O)Nc2ccc3c(c2)OC(F)(F)O3)ccn1 | 87 nM | 39 nM | – |
| COCCNc1cc(CNc2ccccc2C(=O)Nc2ccc3c(c2)OC(F)(F)O3)ccn1 | 13 nM | 104 nM | – |
| O=C(Nc1ccc2c(c1)OC(F)(F)O2)c1ccccc1NCc1ccnc(C2=NCCN2)c1 | 72 nM | 153 nM | – |
| O=C(Nc1ccc2c(c1)OC(F)(F)O2)c1ccccc1NCc1ccnc(NCCCn2ccnc2)c1 | 20 nM | 101 nM | – |
| O=C(Nc1ccc2c(c1)OC(F)(F)O2)c1ccccc1NCc1ccnc(NCCCO)c1 | 9 nM | 142 nM | – |
| CNC(=O)c1cc(CNc2ncsc2C(=O)Nc2ccc3c(c2)OC(F)(F)C(F)(F)O3)ccn1 | 12 nM | 192 nM | – |
| CNC(=O)c1cc(CNc2ccsc2C(=O)Nc2ccc3c(c2)OC(F)(F)O3)ccn1 | 3 nM | 61 nM | – |
| CNC(=O)c1cc(CNc2ccccc2C(=O)Nc2ccc3c(c2)OC(F)(F)O3)ccn1 | 5 nM | 45 nM | AUC [3]: 40 µM·h |
| CNc1nccc(CNc2ccccc2C(=O)Nc2ccc3c(c2)OC(F)(F)O3)n1 | 3 nM | 26 nM | – |
| O=C(Nc1ccc2c(c1)OC(F)(F)C(F)(F)O2)c1ccccc1NCc1ccncc1 | 19 nM | 40 nM | AUC [3]: 6 µM·h |
| O=C(Nc1ccc2c(c1)OC(F)(F)O2)c1ccccc1NCc1ccnc(NCCc2cnc[nH]2)c1 | 23 nM | 146 nM | – |
| COCCNC(=O)c1cc(CNc2ccccc2C(=O)Nc2ccc3c(c2)OC(F)(F)O3)ccn1 | 38 nM | 497 nM | – |
| CNC(=O)Nc1ccc(CNc2ncsc2C(=O)Nc2ccc3c(c2)OC(F)(F)O3)cn1 | 5 nM | – | inhibition in vivo at 50 mg/kg (COLO 205): 84%; IC50 [4]: 3 nM; AUC(0-t) [5]: 538 µM·h; Cmax [6]: 124 µM; inhibition in vivo at 50 mg/kg (NCI-H460): 70%; Vd [7]: 0.151 L/kg; inhibition in vivo at 50 mg/kg (MDA-MB-231): 90% |
| CNC(=O)Nc1ccc(CNc2c(C(=O)Nc3ccc4c(c3)OC(F)(F)C(F)(F)O4)cnn2C)cn1 | 12 nM | – | Cmax [8]: 6 µM; IC50 [4]: 43 nM; AUC(0-t) [5]: 19 µM·h |
| NC(=S)c1cc(CNc2ccccc2C(=O)Nc2ccc3c(c2)OC(F)(F)O3)ccn1 | 27 nM | 100 nM | – |
| CCN(CC)CCNC(=O)c1cc(CNc2ccccc2C(=O)Nc2ccc3c(c2)OC(F)(F)O3)ccn1 | 58 nM | 138 nM | – |

| Compound | IC50 [1] | IC50 [2] | also measured |
| --- | --- | --- | --- |
| CNC(=O)c1cc(CNc2c(C(=O)Nc3ccc4c(c3)OC(F)(F)O4)cnn2C)ccn1 | 11 nM | 199 nM | – |
| O=C(Nc1ccc2c(c1)OC(F)(F)O2)c1ccccc1NCc1ccnc(NCCOCCO)c1 | 4 nM | 165 nM | – |
| O=C(NC1CC1)c1cc(CNc2ccccc2C(=O)Nc2ccc3c(c2)OC(F)(F)O3)ccn1 | 16 nM | 192 nM | – |
| Nc1cc(CNc2ccccc2C(=O)Nc2ccc3c(c2)OC(F)(F)O3)ccn1 | 4 nM and 1 nM | 634 nM and 274 nM | – |
| CS(=O)(=O)CCNC(=O)c1cc(CNc2ccccc2C(=O)Nc2ccc3c(c2)OC(F)(F)O3)ccn1 | 17 nM | 221 nM | – |
| CN(C)c1nccc(CNc2ccccc2C(=O)Nc2ccc3c(c2)OC(F)(F)O3)n1 | 50 nM | 349 nM | – |
| O=C(Nc1ccc2c(c1)OC(F)(F)O2)c1ccccc1NCc1ccnc(NCCO)c1 | 8 nM | 112 nM | – |
| CNC(=O)Nc1ccc(CNc2c(C(=O)Nc3ccc(SC(F)(F)F)cc3)cnn2C)cn1 | 17 nM | 154 nM | Cmax [8]: 3.6 µM; IC50 [4]: 62 nM; AUC(0-t) [5]: 11 µM·h |
| O=C(NCCCN1CCOCC1)c1cc(CNc2ccccc2C(=O)Nc2ccc3c(c2)OC(F)(F)O3)ccn1 | 45 nM | 6830 nM | – |
| CCN(CC)CCCNC(=O)c1cc(CNc2ccccc2C(=O)Nc2ccc3c(c2)OC(F)(F)O3)ccn1 | 42 nM | 175 nM | – |
| CC(=O)Nc1cc(CNc2ccccc2C(=O)Nc2ccc3c(c2)OC(F)(F)O3)ccn1 | 1 nM | 5 nM | – |
| N#Cc1cc(CNc2ccccc2C(=O)Nc2ccc3c(c2)OC(F)(F)O3)ccn1 | 37 nM | 110 nM | – |
| O=C(NCc1ccccc1)Nc1cc(CNc2ccccc2C(=O)Nc2ccc3c(c2)OC(F)(F)O3)ccn1 | 48 nM | 232 nM | – |
| CNC(=O)c1cc(CNc2ncsc2C(=O)Nc2ccc3c(c2)OC(F)(F)O3)ccn1 | 25 nM | 1240 nM | – |
| CCNC(=O)Nc1cc(CNc2ccccc2C(=O)Nc2ccc3c(c2)OC(F)(F)O3)ccn1 | 7 nM | 90 nM | AUC(0-t) at 4 h [9]: > 400 µM·h |
| NC(=O)c1cc(CNc2ccccc2C(=O)Nc2ccc3c(c2)OC(F)(F)O3)ccn1 | 2 nM | 34 nM | – |
| COCCCNc1cc(CNc2ccccc2C(=O)Nc2ccc3c(c2)OC(F)(F)O3)ccn1 | 12 nM | 156 nM | – |
| CNc1cc(CNc2ccccc2C(=O)Nc2ccc3c(c2)OC(F)(F)O3)ccn1 | 3 nM | 100 nM | – |
| CNC(=O)Nc1cc(CNc2ccccc2C(=O)Nc2ccc3c(c2)OC(F)(F)O3)ccn1 | 5 nM | 24 nM | – |
| CCNC(=O)Nc1ccc(CNc2ncsc2C(=O)Nc2ccc3c(c2)OC(F)(F)O3)cn1 | 4 nM | – | inhibition in vivo at 50 mg/kg (COLO 205): 86%; IC50 [4]: 7 nM; AUC(0-t) [5]: 255 µM·h; Cmax [6]: 64 µM; inhibition in vivo at 50 mg/kg (NCI-H460): 79%; Vd [7]: 0.24 L/kg; inhibition in vivo at 50 mg/kg (MDA-MB-231): 92% |
| COCCCNC(=O)c1cc(CNc2ccccc2C(=O)Nc2ccc3c(c2)OC(F)(F)O3)ccn1 | 19 nM | 1030 nM | – |

Reference: ChEMBL document CHEMBL1140657, “SAR of a novel 'Anthranilamide Like' series of VEGFR-2, multi protein kinase inhibitors for the treatment of cancer” (Bioorg Med Chem Lett, 2007)
